# System: glutamate and GABA concentrations in the hippocampus and cortex
# Test: Glutamate and GABA concentrations in hippocampus and cortex of PTZ-kindled mice (LC-MS/MS)
# Assay type: in vivo
# From the text: After completion of behavioral tests, animals were sacrificed and the brains were collected for the analysis of glutamate and GABA concentrations in the hippocampus and cortex. No changes in glutamate and GABA concentrations were reported in the hippocampus (Figure 4A). However, statistically significant differences in the concentration of both glutamate and GABA (Figure 4B) were found in the cortex. The FST procedure increased cortical glutamate concentrations in this brain structure as compared to naive mice (p < 0.05), whereas PTZ-induced kindling caused a ∼30% decrease in glutamate concentrations in comparison to the nonkindled control group exposed to the FST test (p < 0.0001).
# Concentrations of GABA and glutamate in the mouse prefrontal cortex and hippocampus were measured by the liquid chromatography-tandem mass spectrometry (LC-MS/MS) method. Standards of both analytes were purchased from Toronto Research Chemicals Inc. (Toronto, ON, Canada). The stock standard solutions of GABA and glutamate were prepared in methanol and deionized water, respectively, and stored at 4 °C. A series of solution mixtures of desired concentrations were prepared by suitable dilutions of the stock solutions. Before analysis, murine brains were homogenized in distilled water at the ratio of 50 μL/mg using a handheld pestle and a glass tube homogenizer (Potter–Elvehjem PTFE pestle and glass tube, Sigma-Aldrich). Homogenates were centrifuged at 8000g for 10 min at 4 °C, and the supernatant was diluted 10 times with 0.1% formic acid in MeCN. After addition of isotope-labeled GABA-d6 and glutamate-d5 (Toronto Research Chemicals Inc., Toronto, ON, Canada) as internal standards (10 μL at a concentration of 500 ng/mL), samples (10 μL) were deproteinized with 80 μL of 0.1% formic acid in MeCN by shaking for 10 min (IKA Vibrax VXR, Germany) and then centrifuged for 5 min at a speed of 8000g (Eppendorf miniSpin centrifuge). The obtained supernatants were transferred into the autosampler vials. Chromatographic separation was carried out on an XBridge HILIC analytical column (2.1 × 150 mm^2, 3.5 μm, Waters, Ireland) with the oven temperature set at 25 °C using the Excion LC AC HPLC system. The autosampler temperature was maintained at 15 °C, and a sample volume of 2 μL was injected into the LC-MS/MS system. […] The tandem mass spectrometer was operated at unit resolution in the selected reaction monitoring mode (SRM), monitoring the transition of the protonated molecular ions m/z 104–87 and m/z 104–69 for GABA and m/z 148–84 and m/z 148–102 for glutamate (the first pair was used as a quantifier and the second for the identity verification—qualifier). For isotope-labeled GABA-d6 and glutamate-d5 monitored pairs were m/z 110–93 and m/z 153–88, respectively. […]
smiles,measurement,setting,value
"CC(=O)NC(C)C(=O)N1CCN(c2cccc(OC(F)(F)F)c2)CC1 (centres unmarked) [Compound 28, N-(1-oxo-1-(4-(3-(Trifluoromethoxy)phenyl)piperazin-1-yl)propan-2-yl)acetamide]",GABA concentrations in the cortex,PTZ-kindled animals vs PTZ-kindled control,did not affect GABA concentrations
same,cortical glutamate concentration (PTZ-kindling-induced decrease),"cortex, 28 at 40 mg/kg, VPA 150 mg/kg",reversed this effect

# From article PMC11157491, “Novel Alaninamide Derivatives with Drug-like Potential for Development as Antiseizure and Antinociceptive Therapies—In Vitro and In Vivo Characterization” (ACS Chemical Neuroscience, 2024)
